Source: the supplement of paper PMC4862054

Assays:
Details in all cases: incubation time: 72 h
CAL-148 [1] = test: normalised viability (% of control), CellTiter-Blue; higher = more viable cells (about 100 = DMSO control)
Description: (§1)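 DSRT, CellTiter-Blue viability, 72 h incubation. Signal is normalised to DMSO and benzethonium chloride controls. Value is the normalised response at dose 7.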

CAL-51 [2] = test: as above
Description: as §1

CAL-85-1 [3] = test: as above
Description: as §1

DU-4475 [4] = test: as above
Description: as §1

HDQ-P1 [5] = test: as above
Description: as §1

MDA-MB-453 [6] = test: as above
Description: as §1

BT-474 = test: normalised response (% of control), CellTox Green; higher = less cell death (100 = DMSO, 0 = benzethonium chloride kill control)
Outline: (§2)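 Plates were normalised with 0.1 % DMSO as 100 and a positive kill control as 0. Breast cancer cell lines in 20 µl suspension had been seeded into 384-well plates with compound at 5 concentrations in 10-fold steps over a compound-specific 10,000-fold range, incubated 72 h, and read for CellTox Green fluorescence (485/520 nm) followed by CellTiter-Glo luminescence. Each value is the normalised signal at a single concentration.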

BT-549 = test: as above
Outline: as §2

CAL-120 [7] = test: as above
Outline: as §2

CAL-148 [8] = test: as above
Outline: as §2

CAL-51 [9] = test: as above
Outline: as §2

CAL-85-1 [10] = test: as above
Outline: as §2

DU-4475 [11] = test: as above
Outline: as §2

HCC1143 = test: as above
Outline: as §2

HCC1599 = test: as above
Outline: as §2

HCC1937 = test: as above
Outline: as §2

HDQ-P1 [12] = test: as above
Outline: as §2

Hs578T = test: as above
Outline: as §2

MCF-10A = test: as above
Outline: as §2

MDA-MB-231 [13] = test: as above
Outline: as §2

MDA-MB-436 = test: as above
Outline: as §2

MDA-MB-453 [14] = test: as above
Outline: as §2

MFM-223 = test: as above
Outline: as §2

CAL-120 [15] = test: drug sensitivity score (DSS), CellTiter-Glo (DSS (AUC-based score)); higher = stronger drug effect (viability inhibition or cytotoxicity); extreme values may be limits of the assay
Outline: (§3)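 Breast cancer cell lines (20 µl suspension) were seeded into 384-well plates holding compound at 5 concentrations in 10-fold steps over a compound-specific 10,000-fold range, then incubated 72 h. CellTox Green fluorescence (485/520 nm) was read first, then CellTiter-Glo luminescence after 10 min at room temperature. Each plate was normalised to 0.1 % DMSO and a positive kill control. The drug sensitivity score was calculated from the area under the fitted dose-response curve.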

DU-4475 [16] = test: as above
Outline: as §3

HDQ-P1 [17] = test: as above
Outline: as §3

MDA-MB-231 [18] = test: as above
Outline: as §3

## C[C@]12CC[C@@H]3c4ccc(O)cc4C[C@@H](CCCCCCCCC[S+]([O-])CCCC(F)(F)C(F)(F)F)[C@H]3[C@@H]1CC[C@@H]2O (stereo not given in full) [Fulvestrant] (1000 nM)
CAL-148 [1]
  normalised viability: 92.4%
CAL-51 [2]
  normalised viability: 111%
CAL-85-1 [3]
  normalised viability: 84.9%
DU-4475 [4]
  normalised viability: 93.5%
HDQ-P1 [5]
  normalised viability: 84.3%
MDA-MB-453 [6]
  normalised viability: 84.6%
BT-474
  normalised response: 102%
BT-549
  normalised response: 91.9%
CAL-120 [7]
  normalised response: 97.9%
CAL-148 [8]
  normalised response: 100%
CAL-51 [9]
  normalised response: 117%
CAL-85-1 [10]
  normalised response: 74.9%
DU-4475 [11]
  normalised response: 99.7%
HCC1143
  normalised response: 113%
HCC1599
  normalised response: 98%
HCC1937
  normalised response: 98.5%
HDQ-P1 [12]
  normalised response: 111%
Hs578T
  normalised response: 121%
MCF-10A
  normalised response: 101%
MDA-MB-231 [13]
  normalised response: 115%
MDA-MB-436
  normalised response: 93%
MDA-MB-453 [14]
  normalised response: 97.9%
MFM-223
  normalised response: 97.8%

## O=P1(NCCCl)OCCCN1CCCl (stereo not given) [Ifosfamide]
CAL-120 [15]
  drug sensitivity score: 0
DU-4475 [16]
  drug sensitivity score: 0
HDQ-P1 [17]
  drug sensitivity score: 0
MDA-MB-231 [18]
  drug sensitivity score: 0

## CC(C)Cn1cnc2c(N)nc3ccccc3c21 [Imiquimod]
CAL-120 [15]
  drug sensitivity score: 0
DU-4475 [16]
  drug sensitivity score: 0
HDQ-P1 [17]
  drug sensitivity score: 0
MDA-MB-231 [18]
  drug sensitivity score: 0

## N#CCNC(=O)c1ccc(-c2ccnc(Nc3ccc(N4CCOCC4)cc3)n2)cc1 [Momelotinib]
CAL-120 [15]
  drug sensitivity score: 5.07
DU-4475 [16]
  drug sensitivity score: 0
HDQ-P1 [17]
  drug sensitivity score: 0
MDA-MB-231 [18]
  drug sensitivity score: 4.43

## CC1(C)NC(=O)N(c2ccc([N+](=O)[O-])c(C(F)(F)F)c2)C1=O [Nilutamide]
CAL-120 [15]
  drug sensitivity score: 0
DU-4475 [16]
  drug sensitivity score: 0
HDQ-P1 [17]
  drug sensitivity score: 0
MDA-MB-231 [18]
  drug sensitivity score: 0

## CCCCCCCCCCCCCCCCCCOP(=O)([O-])OC1CC[N+](C)(C)CC1 [Perifosine]
CAL-120 [15]
  drug sensitivity score: 0
DU-4475 [16]
  drug sensitivity score: 0
HDQ-P1 [17]
  drug sensitivity score: 0
MDA-MB-231 [18]
  drug sensitivity score: 0

## Cn1c(Nc2ccc(C(F)(F)F)cc2)nc2cc(Oc3ccnc(-c4ncc(C(F)(F)F)[nH]4)c3)ccc21 [RAF265]
CAL-120 [15]
  drug sensitivity score: 3.6
DU-4475 [16]
  drug sensitivity score: 1.18
HDQ-P1 [17]
  drug sensitivity score: 5.82
MDA-MB-231 [18]
  drug sensitivity score: 0

## CS(=O)(=O)c1ccc(C2=C(c3ccccc3)C(=O)OC2)cc1 [Rofecoxib]
CAL-120 [15]
  drug sensitivity score: 0
DU-4475 [16]
  drug sensitivity score: 0
HDQ-P1 [17]
  drug sensitivity score: 0
MDA-MB-231 [18]
  drug sensitivity score: 0

## CNCc1ccc(-c2[nH]c3cc(F)cc4c3c2CCNC4=O)cc1 [Rucaparib]
CAL-120 [15]
  drug sensitivity score: 0
DU-4475 [16]
  drug sensitivity score: 0
HDQ-P1 [17]
  drug sensitivity score: 0
MDA-MB-231 [18]
  drug sensitivity score: 0

## CNCc1ccc(-c2[nH]c3cc(F)cc4c3c2CCNC4=O)cc1 [Rucaparib] (1000 nM)
CAL-148 [1]
  normalised viability: 92.2%
CAL-51 [2]
  normalised viability: 103%
CAL-85-1 [3]
  normalised viability: 85.4%
DU-4475 [4]
  normalised viability: 82.3%
HDQ-P1 [5]
  normalised viability: 89.6%
MDA-MB-453 [6]
  normalised viability: 102%
BT-474
  normalised response: 95.8%
BT-549
  normalised response: 115%
CAL-120 [7]
  normalised response: 97.2%
CAL-148 [8]
  normalised response: 100%
CAL-51 [9]
  normalised response: 93.3%
CAL-85-1 [10]
  normalised response: 71.2%
DU-4475 [11]
  normalised response: 95.3%
HCC1143
  normalised response: 104%
HCC1599
  normalised response: 96.6%
HCC1937
  normalised response: 76%
HDQ-P1 [12]
  normalised response: 71.8%
Hs578T
  normalised response: 110%
MCF-10A
  normalised response: 84.3%
MDA-MB-231 [13]
  normalised response: 100%
MDA-MB-436
  normalised response: 60.3%
MDA-MB-453 [14]
  normalised response: 103%
MFM-223
  normalised response: 84.5%

## N[C@@H](CSC(c1ccccc1)(c1ccccc1)c1ccccc1)C(=O)O [S-trityl-L-cysteine]
CAL-120 [15]
  drug sensitivity score: 0
DU-4475 [16]
  drug sensitivity score: 0
HDQ-P1 [17]
  drug sensitivity score: 0
MDA-MB-231 [18]
  drug sensitivity score: 0

## CN(N=O)C(=O)N[C@@H](C=O)[C@@H](O)[C@H](O)[C@H](O)CO [Streptozocin]
CAL-120 [15]
  drug sensitivity score: 0
DU-4475 [16]
  drug sensitivity score: 0
HDQ-P1 [17]
  drug sensitivity score: 0
MDA-MB-231 [18]
  drug sensitivity score: 0

## O=C1CCC(N2C(=O)c3ccccc3C2=O)C(=O)N1 (stereo not given) [Thalidomide]
CAL-120 [15]
  drug sensitivity score: 0
DU-4475 [16]
  drug sensitivity score: 0
HDQ-P1 [17]
  drug sensitivity score: 0
MDA-MB-231 [18]
  drug sensitivity score: 0

## O=C(CCCCCCC(=O)Nc1ccc([C@H]2O[C@@H](CSc3nc(-c4ccccc4)c(-c4ccccc4)o3)C[C@@H](c3ccc(CO)cc3)O2)cc1)NO [Tubacin]
CAL-120 [15]
  drug sensitivity score: 4.36
DU-4475 [16]
  drug sensitivity score: 1.66
HDQ-P1 [17]
  drug sensitivity score: 2.55
MDA-MB-231 [18]
  drug sensitivity score: 6.83

## CN[C@@H]1C[C@H]2O[C@@](C)([C@@H]1OC)n1c3ccccc3c3c4c(c5c6ccccc6n2c5c31)C(=O)N[C@H]4O [UCN-01]
CAL-120 [15]
  drug sensitivity score: 24.9
DU-4475 [16]
  drug sensitivity score: 19.9
HDQ-P1 [17]
  drug sensitivity score: 18.8
MDA-MB-231 [18]
  drug sensitivity score: 28.1

## Clc1ccc(Nc2nnc(Cc3ccncc3)c3ccccc23)cc1 [Vatalanib]
CAL-120 [15]
  drug sensitivity score: 0
DU-4475 [16]
  drug sensitivity score: 0
HDQ-P1 [17]
  drug sensitivity score: 0
MDA-MB-231 [18]
  drug sensitivity score: 0

## CCC1=C[C@@H]2CN(C1)Cc1c([nH]c3ccccc13)[C@@](C(=O)OC)(c1cc3c(cc1OC)N(C)[C@H]1[C@@](O)(C(=O)OC)[C@H](OC(C)=O)[C@]4(CC)C=CCN5CC[C@]31[C@@H]54)C2 [Vinorelbine]
CAL-120 [15]
  drug sensitivity score: 13.2
DU-4475 [16]
  drug sensitivity score: 6.47
HDQ-P1 [17]
  drug sensitivity score: 7.16
MDA-MB-231 [18]
  drug sensitivity score: 13.7

## Oc1nc(-c2ccc(C(F)(F)F)cc2)nc2c1CSCC2 [XAV-939]
CAL-120 [15]
  drug sensitivity score: 0
DU-4475 [16]
  drug sensitivity score: 0
HDQ-P1 [17]
  drug sensitivity score: 0
MDA-MB-231 [18]
  drug sensitivity score: 2.7
